Consider 14 compounds from US8822517B2, “Arylosulfonamides for the treatment of CNS diseases” (Adamed SP. Z O.O., priority 2010, dated 2014).

The target of test [1] is serotoninergic 5-HT7 receptor (Homo sapiens, UniProt P34969). Nature of the test: Binding assay 5-HT7 (h), [3H]LSD, CHO cells. On the set-up: expressed in transfected cells; host or cells: CHO cells. The settings on record: read-out: 5-HT7. Put shortly:
(§1)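 Tested at 1×10^−6 M. Specific binding: total minus binding remaining with excess cold ligand. Detection: scintillation counting.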

Test [2] deals with adrenergic α1 receptor. Nature of the test: Binding assay α1 (non-selective), [3H]prazosin, rat cerebral cortex. The settings on record: percent inhibition of control specific binding; compounds tested at 1×10^−6 M. Put shortly: as §1
Test [3] addresses T1, serotonine transporter (SERT) receptor (Homo sapiens, UniProt P31645).
T1 construct: expressed in transfected cells; host or cells: CHO cells
The experiment in a line: Binding assay SERT (h), [3H]imipramine, CHO cells. The following applies: read-out: SERT [%]. In a few lines: as §1

In test [4] the target is dopaminergic D3 receptor (Homo sapiens, UniProt P35462). The experiment in a line: Binding assay D3 (h), [3H]methyl-spiperone, CHO cells. The settings on record: read-out: D3 [%]. On the set-up: expressed in transfected cells; host or cells: CHO cells. Put shortly:
as §1

The target in test [5] is T2, serotoninergic 5-HT1A receptor (Homo sapiens, UniProt P08908).
T2 sequence (P08908 1-422): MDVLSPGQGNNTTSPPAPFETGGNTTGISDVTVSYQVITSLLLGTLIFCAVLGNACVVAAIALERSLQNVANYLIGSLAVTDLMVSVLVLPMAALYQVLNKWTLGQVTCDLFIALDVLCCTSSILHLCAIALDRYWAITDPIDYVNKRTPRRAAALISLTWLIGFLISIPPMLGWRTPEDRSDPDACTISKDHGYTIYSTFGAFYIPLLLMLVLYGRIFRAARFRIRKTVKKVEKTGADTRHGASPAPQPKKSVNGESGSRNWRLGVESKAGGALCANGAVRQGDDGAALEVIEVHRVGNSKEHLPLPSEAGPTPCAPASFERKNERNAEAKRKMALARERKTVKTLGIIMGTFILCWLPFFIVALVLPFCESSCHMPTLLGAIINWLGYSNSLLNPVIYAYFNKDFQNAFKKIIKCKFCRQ
Nature of the test: Binding assay 5-HT1A (h), [3H]8-OH-DPAT, HEK-293 cells. The settings on record: read-out: 5-HT1A. On the set-up: expressed in transfected cells; host or cells: HEK-293 cells. In a few lines: as §1

Test [6] concerns the target dopaminergic D2 receptor (Homo sapiens, UniProt P14416). The experiment in a line: Binding assay D2S (h), [3H]methyl-spiperone, HEK-293 cells. Further details: expressed in transfected cells; host or cells: HEK-293 cells. The following applies: read-out: D2 [%]. In a few lines:
as §1

Test [7] addresses serotoninergic 5-HT6 receptor (Homo sapiens, UniProt P50406). The experiment in a line: Binding assay 5-HT6 (h), [3H]LSD, CHO cells. On the set-up: expressed in transfected cells; host or cells: CHO cells. The following applies: read-out: 5-HT6. In a few lines:
as §1

Test [8] concerns the target serotoninergic 5-HT2A receptor (Homo sapiens, UniProt P28223). The experiment in a line: Binding assay 5-HT2A (h), [3H]ketanserin, HEK-293 cells. On the set-up: expressed in transfected cells; host or cells: HEK-293 cells. The settings on record: read-out: 5-HT2A. Put shortly:
as §1

T1 sequence (P31645 whole entry): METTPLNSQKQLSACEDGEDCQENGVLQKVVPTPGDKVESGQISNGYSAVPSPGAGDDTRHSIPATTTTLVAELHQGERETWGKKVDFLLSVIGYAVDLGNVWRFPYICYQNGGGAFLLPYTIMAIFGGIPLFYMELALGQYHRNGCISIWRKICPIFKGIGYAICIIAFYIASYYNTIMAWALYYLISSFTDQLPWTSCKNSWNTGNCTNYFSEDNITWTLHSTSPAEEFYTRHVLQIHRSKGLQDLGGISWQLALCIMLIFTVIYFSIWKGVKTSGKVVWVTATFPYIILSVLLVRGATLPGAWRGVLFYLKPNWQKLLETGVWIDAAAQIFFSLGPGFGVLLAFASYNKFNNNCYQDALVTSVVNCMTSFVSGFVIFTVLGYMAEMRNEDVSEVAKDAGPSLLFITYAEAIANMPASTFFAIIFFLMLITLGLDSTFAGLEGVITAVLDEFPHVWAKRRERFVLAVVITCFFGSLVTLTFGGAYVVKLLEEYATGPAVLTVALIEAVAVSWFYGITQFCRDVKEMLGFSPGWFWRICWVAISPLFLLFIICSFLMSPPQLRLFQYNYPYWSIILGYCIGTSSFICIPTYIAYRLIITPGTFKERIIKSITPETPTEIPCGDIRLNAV
Sequence of dopaminergic D3 receptor (P35462 whole entry): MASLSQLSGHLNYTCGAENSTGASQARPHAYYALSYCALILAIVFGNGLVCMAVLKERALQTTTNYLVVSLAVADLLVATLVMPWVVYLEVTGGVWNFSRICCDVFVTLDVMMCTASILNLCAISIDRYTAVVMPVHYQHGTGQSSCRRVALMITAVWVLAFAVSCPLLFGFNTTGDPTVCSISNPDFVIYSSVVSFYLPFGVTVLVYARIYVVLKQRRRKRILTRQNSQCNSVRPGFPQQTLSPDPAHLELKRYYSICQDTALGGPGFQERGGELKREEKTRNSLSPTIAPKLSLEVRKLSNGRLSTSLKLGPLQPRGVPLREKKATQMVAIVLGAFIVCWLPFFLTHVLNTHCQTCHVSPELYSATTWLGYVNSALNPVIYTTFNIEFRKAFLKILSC
Sequence of serotoninergic 5-HT6 receptor (P50406 whole entry): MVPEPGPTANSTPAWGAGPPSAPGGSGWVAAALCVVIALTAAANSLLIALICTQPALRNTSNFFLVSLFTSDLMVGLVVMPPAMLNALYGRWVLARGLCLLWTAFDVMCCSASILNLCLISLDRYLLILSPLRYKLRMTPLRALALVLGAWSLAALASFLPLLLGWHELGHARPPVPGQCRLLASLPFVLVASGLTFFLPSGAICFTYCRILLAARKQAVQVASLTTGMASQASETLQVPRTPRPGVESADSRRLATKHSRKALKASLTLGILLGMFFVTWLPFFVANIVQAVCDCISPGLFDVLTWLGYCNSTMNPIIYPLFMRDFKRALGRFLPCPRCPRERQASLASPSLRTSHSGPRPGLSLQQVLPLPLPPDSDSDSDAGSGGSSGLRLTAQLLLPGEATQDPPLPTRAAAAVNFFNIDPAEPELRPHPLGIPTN
Sequence of serotoninergic 5-HT7 receptor (P34969 whole entry): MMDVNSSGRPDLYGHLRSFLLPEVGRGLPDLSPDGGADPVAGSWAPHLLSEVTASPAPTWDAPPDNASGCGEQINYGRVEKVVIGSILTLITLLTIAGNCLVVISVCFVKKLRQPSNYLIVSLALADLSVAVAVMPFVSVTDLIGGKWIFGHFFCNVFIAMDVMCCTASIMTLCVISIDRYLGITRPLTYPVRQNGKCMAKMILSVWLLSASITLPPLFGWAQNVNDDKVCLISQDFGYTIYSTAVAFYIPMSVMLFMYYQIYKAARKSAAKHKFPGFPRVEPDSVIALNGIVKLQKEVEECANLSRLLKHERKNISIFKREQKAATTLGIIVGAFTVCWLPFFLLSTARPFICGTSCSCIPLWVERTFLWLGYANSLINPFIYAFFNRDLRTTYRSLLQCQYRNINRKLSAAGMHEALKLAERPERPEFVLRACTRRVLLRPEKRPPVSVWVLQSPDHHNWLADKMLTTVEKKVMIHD
Sequence of dopaminergic D2 receptor (P14416 1-414 isoform P14416-2): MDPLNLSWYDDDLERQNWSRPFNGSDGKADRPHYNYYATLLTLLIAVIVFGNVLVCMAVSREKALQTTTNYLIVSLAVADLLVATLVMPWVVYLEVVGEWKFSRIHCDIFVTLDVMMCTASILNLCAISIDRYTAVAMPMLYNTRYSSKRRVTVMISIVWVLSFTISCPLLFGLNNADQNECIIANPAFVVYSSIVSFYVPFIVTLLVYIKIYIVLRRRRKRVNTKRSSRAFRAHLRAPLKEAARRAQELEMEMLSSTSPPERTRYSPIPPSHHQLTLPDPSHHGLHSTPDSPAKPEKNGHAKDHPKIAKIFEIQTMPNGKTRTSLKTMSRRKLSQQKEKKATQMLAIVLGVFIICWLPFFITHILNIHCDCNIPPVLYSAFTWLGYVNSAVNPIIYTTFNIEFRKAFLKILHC
Sequence of serotoninergic 5-HT2A receptor (P28223 whole entry): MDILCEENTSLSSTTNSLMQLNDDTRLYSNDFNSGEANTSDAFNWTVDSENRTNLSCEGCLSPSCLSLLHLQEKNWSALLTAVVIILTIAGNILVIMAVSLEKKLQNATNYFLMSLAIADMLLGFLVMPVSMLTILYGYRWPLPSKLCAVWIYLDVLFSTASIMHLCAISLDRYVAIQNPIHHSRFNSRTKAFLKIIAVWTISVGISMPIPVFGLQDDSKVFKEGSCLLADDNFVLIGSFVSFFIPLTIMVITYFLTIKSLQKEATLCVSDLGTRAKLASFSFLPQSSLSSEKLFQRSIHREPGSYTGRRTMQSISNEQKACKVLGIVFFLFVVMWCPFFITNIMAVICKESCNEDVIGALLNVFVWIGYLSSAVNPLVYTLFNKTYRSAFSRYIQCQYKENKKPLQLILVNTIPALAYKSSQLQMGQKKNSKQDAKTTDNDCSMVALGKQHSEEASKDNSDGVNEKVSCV

As for `O=c1[nH]c2ccc(S(=O)(=O)NCCCN3CCC(c4noc5cc(F)ccc45)CC3)cc2o1` [Compound 353, N-[3-[4-(6-Fluoro-1,2-benzoxazol-3-yl)piperidin-1-yl]propyl]-2-oxo-3H-1,3-benzoxazole-6-sulphonamide], the inhibition at 1 µM in test [1] was 83%; in test [3], -1%; in test [4] it was 97%; in test [5] it was 48%; in test [6] it was 91%; in test [7] it was 58%. Besides, the inhibition at 1 µM in test [8] stood at 101%. In addition, the “α1 [%]” value in test [2] is listed as 103%.
With `Cc1c(S(=O)(=O)NCCCCN2CCN(c3cccc4[nH]c(=O)[nH]c34)CC2)sc2ccc(Cl)cc12` [Compound 165, 5-Chloro-3-methyl-N-[4-[4-(2-oxo-1,3-dihydrobenzimidazol-4-yl)piperazin-1-yl]butyl]-1-benzothiophene-2-sulfonamide], the inhibition at 1 µM in test [1] is 86%; in test [3] it was 4%; in test [4], 89%; in test [5], 70%; in test [6], 64%; in test [7] it was -16%. For the same compound, in test [8], the inhibition at 1 µM amounted to 37%. In test [2], the “α1 [%]” value is 47%.
Regarding `O=C1COc2c(cccc2N2CCN(CCCCNS(=O)(=O)c3ccc4ccccc4c3)CC2)N1` [Compound 427, N-[4-[4-(3-oxo-4H-1,4-benzoxazin-8-yl)piperazin-1-yl]butyl]naphthalene-2-sulphonamide], the inhibition at 1 µM in test [1] was determined as 98%; in test [3], 13%; in test [4], 104%; in test [5] it was 84%; in test [6] it was 83%; in test [7], 36%. Besides, the inhibition at 1 µM in test [8] was 49%. Moreover, the “α1 [%]” value in test [2] was found to be 86%.
In the case of `O=S(=O)(NCCCCN1CCN(c2cccc3c2OCCO3)CC1)c1ccc2ccccc2c1` [Compound 386, N-[4-[4-(2,3-Dihydro-1,4-benzodioxin-5-yl)piperazin-1-yl]butyl]naphthalene-2-sulphonamide], the inhibition at 1 µM in test [1] is 82%; in test [3] it was -5%; in test [4], 88%; in test [5], 96%; in test [6], 70%; in test [7], 1%. Moreover, the inhibition at 1 µM in test [8] worked out at 65%. The “α1 [%]” value in test [2] came out at 96%.
As for `N#Cc1cccc(S(=O)(=O)NCCCCN2CCN(c3noc4ccccc34)CC2)c1` [Compound 282, N-[4-[4-(1,2-Benzoxazol-3-yl)piperazin-1-yl]butyl]-3-cyanobenzenesulphonamide], the inhibition at 1 µM in test [1] turned out to be 98%; in test [3], 12%; in test [4] it was 87%; in test [5], 50%; in test [6], 97%; in test [7], 64%. In test [8], the inhibition at 1 µM came to 78%. In addition, the “α1 [%]” value in test [2] came to 102%.
Consider `O=S(=O)(NCCCN1CCC(c2noc3cc(F)ccc23)CC1)c1csc2ccccc12` [Compound 346, N-[3-[4-(6-Fluoro-1,2-benzoxazol-3-yl)piperidin-1-yl]propyl]benzothiophene-3-sulphonamide], for which the inhibition at 1 µM was determined as 87% in test [1]; 17% in test [3]; 93% in test [4]; 51% in test [5]; 100% in test [6]; 95% in test [7]. Also, the inhibition at 1 µM in test [8] turned out to be 97%. The “α1 [%]” value in test [2] came to 103%.
For the compound `Cc1[nH]c2ccc(Cl)cc2c1C1=CCN(CCCCNS(=O)(=O)c2cccc(O)c2)CC1` [Compound 369, N-[4-[4-(5-Chloro-2-methyl-1H-indol-3-yl)-3,6-dihydro-2H-pyridin-1-yl]butyl]-3-hydroxybenzenesulphonamide], the inhibition at 1 µM stood at 7% in test [1]; 29% in test [3]; 97% in test [4]; 62% in test [5]; 67% in test [6]; 99% in test [7]. Also, the inhibition at 1 µM in test [8] is 79%. Moreover, in test [2], the “α1 [%]” value is recorded as 50%.
In the case of `O=S(=O)(NCCCN1CCN(c2nsc3ccccc23)CC1)c1cc2ccc(Cl)cc2s1` [Compound 264, N-[3-[4-(1,2-Benzothiazol-3-yl)piperazin-1-yl]propyl]-6-chlorobenzothiophene-2-sulphonamide], the inhibition at 1 µM in test [1] is 75%; in test [3] it was -18%; in test [4], 65%; in test [5], 54%; in test [6], 87%; in test [7], 63%. The inhibition at 1 µM in test [8] worked out at 105%. Also, the “α1 [%]” value in test [2] amounted to 53%.
Consider `O=S(=O)(NCCCCN1CCC(c2noc3cc(F)ccc23)CC1)c1ccc2c(c1)CCO2` [Compound 317, N-[4-[4-(6-Fluoro-1,2-benzoxazol-3-yl)piperidin-1-yl]butyl]-2,3-dihydrobenzofuran-5-sulphonamide], for which the inhibition at 1 µM in test [1] was 89%; in test [3] it was -17%; in test [4], 97%; in test [5] it was 45%; in test [6] it was 105%; in test [7] it was 78%. In test [8], the inhibition at 1 µM came to 98%. The “α1 [%]” value in test [2] is 99%.
In the case of `O=S(=O)(NCCCCN1CCC(c2noc3cc(F)ccc23)CC1)c1ccsc1` [Compound 307, N-[4-[4-(6-Fluoro-1,2-benzoxazol-3-yl)piperidin-1-yl]butyl]thiophene-3-sulphonamide], the inhibition at 1 µM in test [1] was 85%; in test [3] it was -3%; in test [4], 95%; in test [5], 73%; in test [6] it was 88%; in test [7], 76%. For the same compound, the inhibition at 1 µM in test [8] was 99%. Besides, the “α1 [%]” value in test [2] turned out to be 105%.
`N#Cc1cccc(S(=O)(=O)NCCCCN2CCN(c3cccc4[nH]ccc34)CC2)c1` [Compound 362, 3-Cyano-N-[4-[4-(1H-indol-4-yl)piperazin-1-yl]butyl]benzenesulphonamide]: the inhibition at 1 µM came to 88% in test [1]; 37% in test [3]; 102% in test [4]; 91% in test [5]; 101% in test [6]; 69% in test [7]. Also, the inhibition at 1 µM in test [8] came out at 41%. In addition, in test [2], the “α1 [%]” value is recorded as 96%.
With `O=S(=O)(NCCCN1CC=C(c2c[nH]c3ccc(F)cc23)CC1)c1cccc(O)c1` [Compound 437, N-[3-[4-(5-Fluoro-1H-indol-3-yl)-3,6-dihydro-2H-pyridin-1-yl]propyl]-3-hydroxybenzenesulphonamide], the inhibition at 1 µM in test [1] is 83%; in test [3], 105%; in test [4] it was 100%; in test [5] it was 24%; in test [6] it was 57%; in test [7], 47%. In test [8], the inhibition at 1 µM is 74%. The “α1 [%]” value in test [2] was determined as 52%.
For the compound `O=S(=O)(NCCCCN1CCN(c2noc3ccccc23)CC1)c1ccc(Cl)cc1` [Compound 273, N-[4-[4-(1,2-Benzoxazol-3-yl)piperazin-1-yl]butyl]-4-chlorobenzenesulphonamide], the inhibition at 1 µM was determined as 97% in test [1]; 22% in test [3]; 85% in test [4]; 46% in test [5]; 88% in test [6]; 74% in test [7]. For the same compound, in test [8], the inhibition at 1 µM worked out at 95%. In addition, the “α1 [%]” value in test [2] worked out at 101%.
`COc1cccc(S(=O)(=O)NCCCN2CCC(c3noc4cc(F)ccc34)CC2)c1` [Compound 332, N-[3-[4-(6-Fluoro-1,2-benzoxazol-3-yl)piperidin-1-yl]propyl]-3-methoxybenzenesulphonamide]: the inhibition at 1 µM in test [1] was determined as 64%; in test [3], 18%; in test [4], 96%; in test [5], 71%; in test [6] it was 83%; in test [7], 95%. The inhibition at 1 µM in test [8] stood at 97%. The “α1 [%]” value in test [2] was 107%.
